Experimental data taken from paper PMC11276849, “A Female-Biased Chemosensory Protein PxutCSP19 in the Antennae of Papilio xuthus Tuned to Host Volatiles and Insecticides” (Insects, 2024).
Read-outs that look alike come from different tables or passages of the source.

Legend:
PxutCSP19 [1] = target: T1, PxutCSP19 (Papilio xuthus, UniProt A0A194QJK0); test: Binding of fluorescent probe 1-NPN to wildtype PxutCSP19 (titration, Scatchard)
Method: (§1) In order to investigate the ligand-binding properties of PxutCSP19 to host odorants and insecticides, we first asked whether this fluorescent probe 1-NPN was available for the binding of PxutCSP19. To calculate the binding ability of PxutCSP19 to 1-NPN, we titrated different final concentrations of 1-NPN (2~20 μM) into Tris-HCl buffer (pH 7.4) containing 2 μM PxutCSP19. The binding constant (K1-NPN) of 1-NPN to this protein was determined with GraphPad Prism 7 (GraphPad Software Inc., San Diego, CA), as previously described. The solution was excited at 337 nm and the emission peak was monitored at 414 nm on an RF-5301PC spectrofluorometer (Shimadzu, Kyoto, Japan) using a quartz micro-cuvette filled with a 100 μL mixture, with 5 nm excitation and emission slit widths. If the host odorant molecules could displace more than 40% of the 1-NPN fluorescence from the binding cavity of PxutCSP19, the compounds would be continuously added up to 36 μM with triplicates. For the binding experiments, each compound would be added into the PxutCSP19/1-NPN (each 2 μM) complex with final concentrations of 2~20 μM. […]

PxutCSP19-T1 [2] = target: T2, PxutCSP19-T1 (Papilio xuthus, UniProt A0A194QJK0); test: Binding of fluorescent probe 1-NPN to PxutCSP19-T1 (titration, Scatchard); details: read-out: K1-NPN (binding constant of 1-NPN)
T2 sequence (A0A194QJK0 35-142): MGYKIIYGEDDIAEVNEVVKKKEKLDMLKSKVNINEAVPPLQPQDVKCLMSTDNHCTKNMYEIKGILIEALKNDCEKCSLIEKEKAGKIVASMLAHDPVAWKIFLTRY
Method: as §1

PxutCSP19-T2 [3] = target: T3, PxutCSP19-T2 (Papilio xuthus, UniProt A0A194QJK0); test: Binding of fluorescent probe 1-NPN to PxutCSP19-T2 (titration, Scatchard); details: read-out: K1-NPN (binding constant of 1-NPN)
T3 sequence (A0A194QJK0 53-142): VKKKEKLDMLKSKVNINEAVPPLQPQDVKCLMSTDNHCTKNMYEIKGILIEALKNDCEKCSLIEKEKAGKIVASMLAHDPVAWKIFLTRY
Method: as §1

PxutCSP19 [4] = target: T1, PxutCSP19; test: Fluorescence competitive binding assay (1-NPN displacement), wildtype PxutCSP19; details: for inhibition at 20 µM: read-out: F.D. (fluorescent displacement rate of ligands), Wildtype (WT), ligand at 20 μM, PxutCSP19/1-NPN each 2 μM, NB = no binding
From the text: The open reading frame (ORF) of PxutCSP19 was cloned with a PrimeSTAR®® Max DNA Polymerase (TaKaRa, Liaoning, Dalian, China) and gene-specific primers containing restriction enzyme sites (BamH I and Xho I) (Table S2). The PCR products were detected on a 1.5% (w/v) agarose gel, and the expected bands were cut and purified using a HiPure Gel Pure DNA Mini Kit (Magen, Guangzhou, China). Next, BamH I and Xho I were used to digest the PxutCSP19 products and pET-30a (+) plasmids, followed by purification. A T4 DNA ligase (Thermo Fisher Scientific, Waltham, MA, USA) was applied to the construction of the recombinant plasmids pET-30a (+)/PxutCSP19. After being confirmed by sequencing, the plasmids were transformed into BL21 (DE3) competent cells so as to express recombinant proteins with 1.0 mM isopropyl β-D-thiogalactoside (IPTG). Because this recombinant protein pET-30a (+)/PxutCSP19 was insoluble, we applied a protein denaturation–renaturation approach to purify PxutCSP19 with an affinity chromatography technique, in which the denaturation buffer included 8 M urea and 1.0 mM β-mercaptoethanol.
(§2) In order to investigate the ligand-binding properties of PxutCSP19 to host odorants and insecticides, we first asked whether this fluorescent probe 1-NPN was available for the binding of PxutCSP19. To calculate the binding ability of PxutCSP19 to 1-NPN, we titrated different final concentrations of 1-NPN (2~20 μM) into Tris-HCl buffer (pH 7.4) containing 2 μM PxutCSP19. The binding constant (K1-NPN) of 1-NPN to this protein was determined with GraphPad Prism 7 (GraphPad Software Inc., San Diego, CA), as previously described. The solution was excited at 337 nm and the emission peak was monitored at 414 nm on an RF-5301PC spectrofluorometer (Shimadzu, Kyoto, Japan) using a quartz micro-cuvette filled with a 100 μL mixture, with 5 nm excitation and emission slit widths. If the host odorant molecules could displace more than 40% of the 1-NPN fluorescence from the binding cavity of PxutCSP19, the compounds would be continuously added up to 36 μM with triplicates. For the binding experiments, each compound would be added into the PxutCSP19/1-NPN (each 2 μM) complex with final concentrations of 2~20 μM. […] We used the Ki values to compare the binding affinities of various ligands with the equation: Ki = [IC50]/(1 + [1-NPN]/K1-NPN), where IC50 represents the ligand concentrations displacing one half of the initial protein/1-NPN fluorescence, and [1-NPN] is the free concentration of 1-NPN at 2 μM.

PxutCSP19-T1 [5] = target: T2, PxutCSP19-T1; test: Fluorescence competitive binding assay (1-NPN displacement), truncated PxutCSP19-T1; details: for inhibition at 20 µM: T1 (17 N-terminal residues truncated), ligand at 20 μM, read-out: F.D. (fluorescent displacement rate of ligands); for Ki: Ki = [IC50]/(1 + [1-NPN]/K1-NPN)
Method: as §2
(§3) To determine the effects of an extended N-terminal sequence (approximately 35 amino acids) on the binding specificity of PxutCSP19 to ligands, we next constructed two truncated PxutCSP19s. Firstly, the front 17 amino acids (i.e., EITIGGIERTMSPGVKS, defined as PxutCSP19-T1) and the front 35 amino acids (i.e., […], defined as PxutCSP19-T2) of the N-terminal region without the signal peptide were truncated, respectively. Secondly, the two truncated ORFs (PxutCSP19-T1: 360 bp and PxutCSP19-T2: 306 bp) of PxutCSP19s were separately amplified using RT–PCR with gene-specific primers (Table S2). After that, the amplified products were sub-cloned into pET-30a (+), i.e., pET-30a (+)/PxutCSP19-T1 and pET-30a (+)/PxutCSP19-T2. Using the above-described methods for the expression and purification of proteins, we obtained two truncated proteins. Furthermore, the binding characteristics of the truncated PxutCSP19s to ligands with high affinities were investigated, representing six host odorants and eight insecticides.

PxutCSP19-T2 [6] = target: T3, PxutCSP19-T2; test: Fluorescence competitive binding assay (1-NPN displacement), truncated PxutCSP19-T2; details: for inhibition at 20 µM: T2 (35 N-terminal residues truncated), ligand at 20 μM, read-out: F.D. (fluorescent displacement rate of ligands); for Ki: Ki = [IC50]/(1 + [1-NPN]/K1-NPN)
Method: as §2, §3

T1 sequence (A0A194QJK0 entry or part of it): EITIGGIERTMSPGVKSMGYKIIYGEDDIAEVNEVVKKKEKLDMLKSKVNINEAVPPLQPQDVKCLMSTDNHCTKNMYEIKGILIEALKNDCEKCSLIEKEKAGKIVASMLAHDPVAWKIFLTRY

| Structure (SMILES) | Kd (PxutCSP19 [1]) | Kd (PxutCSP19-T1 [2]) | Kd (PxutCSP19-T2 [3]) | IC50 (PxutCSP19 [4]) | inhibition at 20 µM (PxutCSP19 [4]) | inhibition at 20 µM (PxutCSP19-T1 [5]) | Ki (PxutCSP19-T1 [5]; T1) | IC50 (PxutCSP19-T1 [5]; T1, read-out: IC50) | inhibition at 20 µM (PxutCSP19-T2 [6]) | Ki (PxutCSP19-T2 [6]; T2) | IC50 (PxutCSP19-T2 [6]; T2, read-out: IC50) | IC50 (PxutCSP19-T1 [5]) | IC50 (PxutCSP19-T2 [6]) | Ki (PxutCSP19 [4]; Wildtype (WT), Ki = [IC50]/(1 + [1-NPN]/K1-NPN)) | IC50 (PxutCSP19 [4]; Wildtype (WT), ligand up to 20 μM or 36 μM, displacing half of protein/1-NPN fluorescence) |
| --- | --- | --- | --- | --- | --- | --- | --- | --- | --- | --- | --- | --- | --- | --- | --- |
| c1ccc(Nc2cccc3ccccc23)cc1 [1-NPN, N-phenyl-1-naphthylamine] | 2.65 ± 0.35 µM | 2.12 ± 0.47 µM | 2.5 ± 0.25 µM |  |  |  |  |  |  |  |  |  |  |  |  |
| CCCCCCCCO [1-Octanol] |  |  |  | 34.5 ± 1.11 µM | > 40% | 43.5% | 21.7 ± 0.44 µM | 34.5 ± 0.7 µM | 42.7% | 22.8 ± 0.42 µM | 34.6 ± 0.64 µM |  |  |  |  |
| CCOCn1c(-c2ccc(Cl)cc2)c(C#N)c(Br)c1C(F)(F)F [Chlorfenapyr] |  |  |  | 10.71 ± 0.09 µM | 58.7% | 63.8% | 6.47 ± 0.27 µM | 10.3 ± 0.43 µM | 64.3% | 6.68 ± 0.45 µM | 10.1 ± 0.68 µM |  |  |  |  |
| O=C(NC(=O)c1c(F)cccc1F)Nc1cc(Cl)c(Oc2ncc(C(F)(F)F)cc2Cl)c(Cl)c1 [Chlorfluazuron] |  |  |  | 11.9 ± 1.04 µM | 60.5% | 54.7% | 7.99 ± 0.94 µM | 12.7 ± 1.49 µM | 57% | 8.88 ± 0.4 µM | 13.5 ± 0.6 µM |  |  |  |  |
| CCOP(=S)(OCC)Oc1nc(Cl)c(Cl)cc1Cl [Chlorpyrifos] |  |  |  | 5.52 ± 0.16 µM | 75.1% | 70.3% |  |  | 73.2% |  |  | 5.87 ± 0.47 µM | 5.32 ± 0.4 µM |  |  |
| O=C(NC(=O)c1c(F)cccc1F)Nc1cc(Cl)c(OC(F)(F)C(F)F)c(Cl)c1 [Hexaflumuron] |  |  |  | 12.1 ± 2.36 µM | 59.5% | 56.5% | 7.78 ± 0.46 µM | 12.4 ± 0.73 µM | 59.6% | 8.02 ± 1.03 µM | 12.2 ± 1.56 µM |  |  |  |  |
| COC(=O)N(C(=O)N1CO[C@@]2(C(=O)OC)Cc3cc(Cl)ccc3C2=N1)c1ccc(OC(F)(F)F)cc1 [Indoxacarb] |  |  |  | 10.8 ± 0.65 µM | 61.5% | 59.1% | 7.08 ± 0.26 µM | 11.3 ± 0.41 µM | 62.5% | 7.98 ± 0.37 µM | 12.1 ± 0.56 µM |  |  |  |  |
| C=CC(C)(O)CCC=C(C)C (centres unmarked) [Linalool] |  |  |  | 33.8 ± 0.84 µM | > 40% | 39.8% | 20.8 ± 0.85 µM | 33.1 ± 1.34 µM | 40.3% | 22.8 ± 0.59 µM | 34.6 ± 0.9 µM |  |  |  |  |
| CN(C)C(CSS(=O)(=O)O)CSS(=O)(=O)O [Monosultap] |  |  |  |  | 53.6% | 54.8% | 11.1 ± 0.46 µM | 17.6 ± 0.73 µM | 61% | 11.8 ± 0.67 µM | 17.9 ± 1.02 µM |  |  | 11.1 ± 0.66 µM | 16.8 ± 1.01 µM |
| CC(C)=CCC/C(C)=C\CO [Nerol] |  |  |  | 34 ± 1.46 µM | > 40% | 39.4% | 21.84 ± 0.02 µM | 34.75 ± 0.03 µM | 40.8% | 22.2 ± 0.56 µM | 33.8 ± 0.85 µM |  |  |  |  |
| C=C/C(C)=C/CC=C(C)C [Ocimene] |  |  |  | 31.3 ± 1.73 µM | > 40% | 43.1% | 19.9 ± 1.17 µM | 31.7 ± 1.86 µM | 35.2% | 21.6 ± 0.72 µM | 32.8 ± 1.09 µM |  |  |  |  |
| CCOP(=S)(OCC)O/N=C(\C#N)c1ccccc1 [Phoxim] |  |  |  | 2.63 ± 0.12 µM | 87.3% | 83.1% |  |  | 84.8% |  |  | 2.66 ± 0.2 µM | 3.16 ± 0.35 µM |  |  |
| C=C(C)[C@H]1Cc2c(ccc3c2O[C@@H]2COc4cc(OC)c(OC)cc4[C@@H]2C3=O)O1 [Rotenone] |  |  |  | 9.15 ± 0.76 µM | 67.6% | 61.8% |  |  | 64.4% |  |  | 11.12 ± 0.04 µM | 11.3 ± 0.58 µM |  |  |
| COc1cc(C=O)cc(OC)c1O [Syringaldehyde] |  |  |  | 31 ± 0.97 µM | > 40% | 42.7% | 17.7 ± 0.84 µM | 28.1 ± 1.33 µM | 42.2% | 18.8 ± 0.74 µM | 28.6 ± 1.12 µM |  |  |  |  |
| CC1=CCC(=C(C)C)CC1 [Terpinolene] |  |  |  | 34.1 ± 1.31 µM | > 40% | 40.1% | 21.14 ± 0.1 µM | 33.64 ± 0.16 µM | 38.5% | 20.8 ± 1.1 µM | 31.6 ± 1.67 µM |  |  |  |  |
